Assays:
[1] = tested on: bedstraw; test: Test B pre/postemergence bedstraw; format: in vivo, Galium aparine
Summary of the method: (§1)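 Herbicidal effect was estimated by eye on a ten-point control scale after plants spent twelve to sixteen days in a greenhouse following soil or foliar treatment. Foliar sprays targeted plants at one to four leaves; all doses were formulated in a non-phytotoxic solvent with surfactant.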

[2] = tested on: surinam grass; test: Test B pre/postemergence surinam grass; format: in vivo, Brachiaria decumbens
Summary of the method: as §1

[3] = tested on: sugar beet; test: Test B pre/postemergence sugar beet; format: in vivo, Beta vulgaris
Summary of the method: as §1

[4] = tested on: rape; test: Test B pre/postemergence rape; format: in vivo, Brassica napus
Summary of the method: as §1

[5] = tested on: purple nutsedge; test: Test B pre/postemergence purple nutsedge; format: in vivo, Cyperus rotundus
Summary of the method: as §1

[6] = tested on: pigweed; test: Test B pre/postemergence pigweed; format: in vivo, Amaranthus retroflexus
Summary of the method: as §1

[7] = tested on: corn; test: Test B pre/postemergence corn; format: in vivo, Zea mays
Summary of the method: as §1

[8] = tested on: cocklebur; test: Test B pre/postemergence cocklebur; format: in vivo, Xanthium strumarium
Summary of the method: as §1

[9] = tested on: rice; test: Test B flood test rice; format: in vivo, Oryza sativa
Summary of the method: (§2)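 Each value is a visual injury score relative to controls, with 10 meaning complete control and 0 no effect. Evaluation took place twelve to sixteen days after the 2-leaf-stage plants were treated and kept in the greenhouse.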

[10] = tested on: velvetleaf; test: Test B pre/postemergence velvetleaf; format: in vivo, Abutilon theophrasti
Summary of the method: as §1

[11] = tested on: blackgrass; test: Test B pre/postemergence blackgrass; format: in vivo, Alopecurus myosuroides
Summary of the method: as §1

[12] = tested on: duck salad; test: Test B flood test duck salad; format: in vivo, Heteranthera limosa
Summary of the method: as §2

[13] = tested on: morningglory; test: Test B pre/postemergence morningglory; format: in vivo, Ipomoea hederacea
Summary of the method: as §1

[14] = tested on: giant foxtail; test: Test B pre/postemergence giant foxtail; format: in vivo, Setaria faberii
Summary of the method: as §1

[15] = tested on: bamyardgrass; test: Test B flood test barnyardgrass; format: in vivo, Echinochloa crus-galli
Summary of the method: as §2

[16] = Postemergence, Rate 62 g/ha, scale 0 to 10, 0 is no effect, 10 is complete control
[17] = Postemergence, Rate 250 g/ha, scale 0 to 10, 0 no effect, 10 complete control
[18] = Preemergence, Rate 62 g/ha, scale 0 to 10 (0 no effect, 10 complete control)
[19] = Preemergence, Rate 125 g/ha, scale 0 to 10 (0 no effect, 10 complete control)
[20] = Preemergence, Rate 250 g/ha, scale of 0 to 10 where 0 is no effect and 10 is complete control
[21] = Preemergence, Rate 500 g/ha, scale 0 (no effect) to 10 (complete control)
[22] = Rate 125 g/ha, Postemergence, scale 0 to 10, 0 no effect, 10 complete control
[23] = Rate 500 g/ha, Postemergence, scale 0 to 10, 0 no effect, 10 complete control
[24] = Rate 125 g/ha, Postemergence section (flood test species), scale 0 to 10, 0 no effect, 10 complete control
[25] = Rate 500 g/ha, listed under Postemergence (flood test species), scale 0 to 10, 0 no effect, 10 complete control
[26] = flood test, listed under Postemergence, Rate 250 g/ha, scale 0 to 10, 0 no effect, 10 complete control

SMILES: CCN(CC)C(=O)n1oc(=O)n(Cc2cccs2)c1=O [Compound 77]
- Bedstraw plant response rating [1, 16]: 0
- Bedstraw plant response rating [1, 17]: 0
- Bedstraw plant response rating [1, 18]: 0
- Plant response rating, Bedstraw [1, 19]: 0
- Plant response rating, Bedstraw [1, 20]: 0
- Bedstraw plant response rating [1, 21]: 0
- Bedstraw plant response rating [1, 22]: 0
- Bedstraw plant response rating [1, 23]: 0
- B. signalgrass plant response rating [2, 16]: 0
- B. signalgrass plant response rating [2, 17]: 0
- B. signalgrass plant response rating [2, 18]: 0
- Plant response rating, B. signalgrass [2, 19]: 0
- Plant response rating, B. signalgrass [2, 20]: 0
- B. signalgrass plant response rating [2, 21]: 0
- B. signalgrass plant response rating [2, 22]: 0
- B. signalgrass plant response rating ([2]; Rate 500 g/ha, Postemergence, scale of 0 to 10 where 0 is no effect and 10 is complete control): 2
- Sugarbeets plant response rating [3, 16]: 0
- Sugarbeets plant response rating [3, 17]: 0
- Sugarbeets plant response rating [3, 18]: 0
- Plant response rating, Sugarbeets [3, 19]: 0
- Plant response rating, Sugarbeets [3, 20]: 0
- Sugarbeets plant response rating [3, 21]: 0
- Sugarbeets plant response rating [3, 22]: 0
- Sugarbeets plant response rating [3, 23]: 0
- Rape plant response rating [4, 16]: 0
- Rape plant response rating [4, 17]: 0
- Rape plant response rating [4, 18]: 0
- Plant response rating, Rape [4, 19]: 0
- Plant response rating, Rape [4, 20]: 0
- Rape plant response rating [4, 21]: 0
- Rape plant response rating [4, 22]: 0
- Rape plant response rating [4, 23]: 3
- Nutsedge plant response rating [5, 16]: 0
- Nutsedge plant response rating [5, 17]: 0
- Nutsedge plant response rating [5, 18]: 0
- Plant response rating, Nutsedge [5, 19]: 2
- Plant response rating, Nutsedge [5, 20]: 3
- Nutsedge plant response rating [5, 21]: 6
- Nutsedge plant response rating [5, 22]: 0
- Nutsedge plant response rating [5, 23]: 0
- Redroot pigweed plant response rating [6, 16]: 0
- Redroot pigweed plant response rating [6, 17]: 0
- Redroot pigweed plant response rating [6, 18]: 0
- Plant response rating, Redroot pigweed [6, 19]: 0
- Plant response rating, Redroot pigweed [6, 20]: 0
- Redroot pigweed plant response rating [6, 21]: 0
- Redroot pigweed plant response rating [6, 22]: 0
- Redroot pigweed plant response rating [6, 23]: 0
- Corn plant response rating [7, 16]: 0
- Corn plant response rating [7, 17]: 0
- Corn plant response rating [7, 18]: 0
- Plant response rating, Corn [7, 19]: 0
- Plant response rating, Corn [7, 20]: 0
- Corn plant response rating [7, 21]: 0
- Corn plant response rating [7, 22]: 0
- Corn plant response rating [7, 23]: 0
- Cocklebur plant response rating [8, 16]: 0
- Cocklebur plant response rating [8, 17]: 0
- Cocklebur plant response rating [8, 18]: 0
- Plant response rating, Cocklebur [8, 19]: 0
- Plant response rating, Cocklebur [8, 20]: 0
- Cocklebur plant response rating [8, 21]: 0
- Cocklebur plant response rating [8, 22]: 0
- Cocklebur plant response rating [8, 23]: 4
- Rice plant response rating [9, 16]: 0
- Rice plant response rating [9, 24]: 0
- Rice plant response rating [9, 25]: 0
- Rice plant response rating [9, 26]: 0
- Velvetleaf plant response rating [10, 16]: 0
- Velvetleaf plant response rating [10, 17]: 0
- Velvetleaf plant response rating [10, 18]: 0
- Plant response rating, Velvetleaf [10, 19]: 0
- Plant response rating, Velvetleaf [10, 20]: 0
- Velvetleaf plant response rating [10, 21]: 3
- Velvetleaf plant response rating [10, 22]: 0
- Velvetleaf plant response rating [10, 23]: 0
- Blackgrass plant response rating [11, 16]: 0
- Blackgrass plant response rating [11, 17]: 0
- Blackgrass plant response rating [11, 18]: 0
- Plant response rating, Blackgrass [11, 19]: 0
- Plant response rating, Blackgrass [11, 20]: 0
- Blackgrass plant response rating [11, 21]: 0
- Blackgrass plant response rating [11, 22]: 0
- Blackgrass plant response rating [11, 23]: 4
- Ducksalad plant response rating [12, 16]: 0
- Ducksalad plant response rating [12, 24]: 0
- Ducksalad plant response rating [12, 25]: 0
- Ducksalad plant response rating [12, 26]: 0
- Morningglory plant response rating [13, 16]: 0
- Morningglory plant response rating [13, 17]: 0
- Morningglory plant response rating [13, 18]: 0
- Plant response rating, Morningglory [13, 19]: 0
- Plant response rating, Morningglory [13, 20]: 0
- Morningglory plant response rating [13, 21]: 0
- Morningglory plant response rating [13, 22]: 0
- Morningglory plant response rating [13, 23]: 0
- Giant foxtail plant response rating [14, 16]: 0
- Giant foxtail plant response rating [14, 17]: 0
- Giant foxtail plant response rating [14, 18]: 0
- Plant response rating, Giant foxtail [14, 19]: 0
- Plant response rating, Giant foxtail [14, 20]: 3
- Giant foxtail plant response rating [14, 21]: 5
- Giant foxtail plant response rating [14, 22]: 0
- Giant foxtail plant response rating [14, 23]: 2
- Barnyardgrass plant response rating [15, 16]: 0
- Barnyardgrass plant response rating [15, 24]: 0
- Barnyardgrass plant response rating [15, 25]: 0
- Barnyardgrass plant response rating [15, 26]: 0
